Changes are numbered by the printed parent chain.
Columns and labels:
Assay type in all cases: cell-based
[1] = target: T1, GIRK2 PIP S148T mutant channel (Mus musculus, UniProt P48542, D228N/I234L/M344L/N231K/S148T); assay: whole-cell patch clamp, GIRK2 PIP S148T mutant channel; settings: 50 mM alcohols
T1 construct: expressed in transfected cells; host or cells: HEK293 / HEK293T
T1 sequence (P48542 1-425 S148T/D228N/N231K/I234L/M344L): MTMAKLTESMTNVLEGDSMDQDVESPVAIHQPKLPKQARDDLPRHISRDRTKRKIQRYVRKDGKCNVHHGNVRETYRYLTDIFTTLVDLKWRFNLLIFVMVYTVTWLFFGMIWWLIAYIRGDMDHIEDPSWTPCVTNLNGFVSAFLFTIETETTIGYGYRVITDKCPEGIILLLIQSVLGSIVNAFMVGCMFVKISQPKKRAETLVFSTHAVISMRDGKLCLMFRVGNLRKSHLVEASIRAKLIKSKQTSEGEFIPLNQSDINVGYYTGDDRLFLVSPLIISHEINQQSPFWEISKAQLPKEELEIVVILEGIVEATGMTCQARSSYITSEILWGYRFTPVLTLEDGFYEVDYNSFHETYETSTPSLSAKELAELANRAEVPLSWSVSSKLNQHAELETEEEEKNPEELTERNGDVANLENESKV
Procedure: (§1) Point mutations were introduced by Quickchange site directed mutagenesis kit (Stratagene). The GIRK2 PIP mutant was generated by overlap-PCR method. […] Mutations were confirmed by automated DNA sequencing methods. […] Cells were plated in a 12 well dish, and were transiently transfected using Lipofectamine 2000 (Invitrogen). After 12-24 hrs, cells were re-plated to 12-mm glass coverslips coated with poly-D-[…] microgram/ml). […] The cells were co-transfected with 0.04 micrograms of eYFP cDNA to identify transfected cells. 0.8 micrograms of Muscarinic Receptor 2 (M2R) was also co-transfected for experiments with Carbachol. […] Whole-cell patch clamp recordings were performed 24-72 hrs after transfection. […] Alcohols, 5 μM Carbachol, and 1 mM BaCl2 (diluted in 20K solution) were applied from outside the cell with the rapid perfusion system (Warner Instruments). […] Current-voltage relationships also were obtained from the ramp protocol. This protocol was used to measure the inwardly rectifying currents at -100 mV and to ensure stability of recording by monitoring a reversal potential and inward rectification. […] Alcohol and Carbachol modulated currents were measured by averaging two consecutive current readings upon reaching steady state, and subtracting the averaged basal current before and after the application of modulator.

[2] = target: T2, GIRK2 L257W mutant channel (Mus musculus, UniProt P48542, L257W); assay: whole-cell patch clamp, GIRK2 L257W mutant channel; settings: n=9; for modulation of GIRK2 L257W, percentage change from basal current (negative = inhibition): alcohols as for wild type (100 mM)
T2 construct: expressed in transfected cells; host or cells: HEK293T
T2 sequence (P48542 1-425 L257W): T1 sequence (P48542 1-425 S148T/D228N/N231K/I234L/M344L) with T148S, N228D, K231N, L234I, L257W, L344M
Procedure: as §1

[3] = target: T3, GIRK2 L257A mutant channel (Mus musculus, UniProt P48542, L257A); assay: whole-cell patch clamp, GIRK2 L257A mutant channel; settings: n=9; for activation of GIRK2 L257A, percentage change from basal current: alcohols as for wild type (100 mM)
T3 construct: expressed in transfected cells; host or cells: HEK293T
T3 sequence (P48542 1-425 L257A): T1 sequence (P48542 1-425 S148T/D228N/N231K/I234L/M344L) with T148S, N228D, K231N, L234I, L257A, L344M
Procedure: as §1

[4] = target: T4, GIRK4* L252W mutant channel (Rattus norvegicus, UniProt P48548, L252W/S143T); assay: whole-cell patch clamp, GIRK4* L252W mutant channel; settings: for modulation of GIRK4* L252W mutant channel, percentage change from basal (negative = inhibition): n=8
T4 construct: expressed in transfected cells; host or cells: HEK293 / HEK293T
T4 sequence (P48548 1-419 S143T/L252W): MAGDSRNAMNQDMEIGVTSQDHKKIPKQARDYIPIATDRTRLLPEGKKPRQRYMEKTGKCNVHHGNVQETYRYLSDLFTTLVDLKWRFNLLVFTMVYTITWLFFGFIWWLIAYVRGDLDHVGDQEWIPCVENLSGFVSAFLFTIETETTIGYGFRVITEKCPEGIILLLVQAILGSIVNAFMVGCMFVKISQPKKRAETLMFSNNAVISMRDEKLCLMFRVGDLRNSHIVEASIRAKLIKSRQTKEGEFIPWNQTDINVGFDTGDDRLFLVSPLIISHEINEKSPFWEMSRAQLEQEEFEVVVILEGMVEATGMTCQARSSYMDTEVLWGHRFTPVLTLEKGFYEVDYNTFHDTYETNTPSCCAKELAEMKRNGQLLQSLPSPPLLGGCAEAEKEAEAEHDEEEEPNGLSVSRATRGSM
Procedure: as §1

[5] = target: T5, GIRK4* Leu252 to Ala mutant channel (Rattus norvegicus, UniProt P48548, L252A/S143T); assay: whole-cell patch clamp, GIRK4* L252A mutant channel; settings: for percent activation of GIRK4* Leu252 to Ala mutant: n=8
T5 construct: expressed in transfected cells; host or cells: HEK293 / HEK293T
T5 sequence (P48548 1-419 S143T/L252A): T4 sequence (P48548 1-419 S143T/L252W) with W252A
Procedure: as §1

[6] = tested on: GIRK2 L257Y mutant channel; assay: whole-cell patch clamp, GIRK2 L257Y mutant channel; settings: n=9; for activation of GIRK2 L257Y, percentage change from basal current: alcohols as for wild type (100 mM)
Procedure: as §1

[7] = 5 μM Carbachol, M2R co-transfected

| Compound | inhibition of GIRK2 PIP S148T, percentage inhibition [1] | modulation of GIRK2 L257W, percentage change from basal current (negative = inhibition) [2] | activation of GIRK2 L257A, percentage change from basal current [3] | modulation of GIRK4* L252W mutant channel, percentage change from basal (negative = inhibition) [4] | percent activation of GIRK4* Leu252 to Ala mutant [5] | G-protein mediated activation, GIRK2 L257W, percentage change from basal current [2, 7] | Carbachol activated currents, GIRK2 L257A, percentage change from basal current [3, 7] | Carb (G-protein mediated) activation, GIRK4* L252 Trp ([4]; 5 μM Carbachol) | Carb (G-protein mediated) activation, GIRK4* L252 Ala ([5]; 5 μM Carbachol) | activation of GIRK2 L257Y, percentage change from basal current [6] | Carbachol activation, GIRK2 L257Y, percentage change from basal current [6, 7] |
| --- | --- | --- | --- | --- | --- | --- | --- | --- | --- | --- | --- |
| 1-butanol [1-BuOH] | −28±1% |  |  |  |  |  |  |  |  |  |  |
| 1-propanol [1-PrOH] | −15±1% | 57±6% | 467±44% | −19±2% | 86±8% |  |  |  |  | 275±34% |  |
| C[N+](C)(C)CCOC(N)=O [Carbachol] |  |  |  |  |  | 12±2% | 36±6% | 23±3% | 51±8% |  | 38±11% |

Now from value to compound, other results behind:

| inhibition of GIRK2 PIP S148T, percentage inhibition [1] | modulation of GIRK2 L257W, percentage change from basal current (negative = inhibition) [2] | activation of GIRK2 L257A, percentage change from basal current [3] | modulation of GIRK4* L252W mutant channel, percentage change from basal (negative = inhibition) [4] | percent activation of GIRK4* Leu252 to Ala mutant [5] | G-protein mediated activation, GIRK2 L257W, percentage change from basal current [2, 7] | Carbachol activated currents, GIRK2 L257A, percentage change from basal current [3, 7] | Carb (G-protein mediated) activation, GIRK4* L252 Trp ([4]; 5 μM Carbachol) | Carb (G-protein mediated) activation, GIRK4* L252 Ala ([5]; 5 μM Carbachol) | Compound | activation of GIRK2 L257Y, percentage change from basal current [6] | Carbachol activation, GIRK2 L257Y, percentage change from basal current [6, 7] |
| --- | --- | --- | --- | --- | --- | --- | --- | --- | --- | --- | --- |
| −36±1% | −97±4% | 330±27% |  | 179±22% |  |  |  |  | CC(O)CC(C)(C)O (racemic) [MPD, 2-methyl-2,4-pentanediol] | 73±10% |  |
| −4±1% | 34±3% | 132±9% | 5±2% |  |  |  |  |  | CCO [EtOH, ethanol] | 92±10% |  |

— patent US8097422B2, “Kir channel modulators” (Salk Institute for Biological Studies, priority 2007, dated 2012)
